# Results taken from publication PMC9837035 (Nature Communications, 2023).
# Several values for one entry are separate records, joined by “and”; a condition that tells them apart may be missing. Equal entries are not always repeated.
# What was measured:
# [1] = system: H3K9ac at the β-globin locus; assay: ChIP-qPCR with antibody against H3K9ac in HUDEP-2 cells; format: cell-based, human; design: ChIP-qPCR using antibodies against H3K9ac in HUDEP-2 cells treated with SAHA: unit not given here; settings: for ChIP-qPCR using antibodies against H3K9ac in HUDEP-2 cells treated with SAHA: experiments 1-3, a/b replicates
# Description: A total of 0.5–1 × 10^6 cells were cross-linked with 1% formaldehyde for 10 min at room temperature and the reaction was quenched with 250 mM glycine. Cross-linked cells were then lysed with buffer 1 (15 mM Tris-HCl (pH 7.5), 60 mM KCl, 15 mM NaCl, 5 mM MgCl2, 0.1 mM EGTA, 300 mM sucrose, […], 1 mM phenylmethanesulfonyl fluoride (PMSF), 0.5% NP40) and incubated on ice for 10 min. […] After centrifugation, the pellet was then re-suspended in MNase buffer (50 mM Tris-HCl (pH 7.5), 1 mM CaCl2, 4 mM MgCl2, 320 mM sucrose, 1 mM PMSF) and digested with 100 U of micrococcal nuclease (Takara) at 37 °C for 15 min. […] Beads were washed sequentially once with the following buffers: wash buffer A (50 mM Tris-HCl (pH 7.5), 75 mM NaCl, 10 mM EDTA, 0.01% NP40), wash buffer B (50 mM Tris-HCl (pH 7.5), 100 mM NaCl, 10 mM EDTA, 0.01% NP40), wash buffer C (50 mM Tris-HCl (pH 7.5), 175 mM NaCl, 10 mM EDTA, 0.01% NP40). After treatment with proteinase K in buffer 4 (20 mM Tris-HCl (pH 8.0), 10 mM EDTA, 400 mM NaCl, 0.5% SDS) at 56 °C overnight, DNA was purified using the FastGene Gel/PCR Extraction Kit (Nippon Genetics). The samples were analyzed by qPCR. Primers are listed in Supplementary Table 10. ChIP-seq experiments were performed by GENEWIZ. Tracks were visualized using the integrative genome viewer. ChIP-seq analysis were analyzed Cutadapt (V1.9.1) for QC, FastQC (V0.10.1) for QC assessment, Bowtie (V2.1.0) for mapping, strand cross-correlation (SCC) for ChIP quality assessment, MACS2 for peak calling, and R package ChIPpeakAnno for Peak annotated.
# [2] = system: BGLT3-knockdown HUDEP-2 cells; assay: RT-qPCR of BGLT3, β- and γ-globin in BGLT3-knockdown HUDEP-2 cells; format: cell-based, human; settings: 1 μM, relative to shctrl DMSO = 1, replicate values
# Description: (§1) Total cellular RNA was prepared using the Tissue Total RNA Mini Kit (FAVORGEN), and cDNA was synthesized using ReverTra Ace Master Mix (TOYOBO). Expression of target genes was analyzed using THUNDERBIRD SYBR qPCR Mix (TOYOBO) on a CFX Connect Real Time System (Bio-Rad). The qPCR data were acquired on CFX Maestro (Bio-Rad). Primers are listed in Supplementary Table 10. GAPDH was used as a reference. Primers were purchased from INTEGRATED DNA TECHNOLOGIES or FASMAC.
# Retroviral infection was used as previously described to establish cell lines stably expressing BGLT3 and transfected with the pCX4-pur vector, as well as knockdown cell lines transfected with the pSUPER vector[58]. Briefly, retroviruses were produced by transfecting PLAT-E cells with pCX4-pur-BGLT3 or pSUPER-ctrl, pSUPER-BGLT3, or pSUPER-G9a using 5 μg/mL polyethylenimine MAX (PEI MAX, Polysciences). Two days after transfection, the culture supernatant was collected and filtered through a 0.45-μm filter (Millipore) and used for infection with 8 μg/mL polybrene (Sigma). Forty-eight hours after infection, the infected cells were selected with 0.2 μg/mL puromycin (InvivoGen). The clonal puromycin-resistant cells were established via limiting dilution. The desired clones were confirmed by western blotting or qPCR.
# [3] = system: BGLT3 RNA in HUDEP-2 cells; assay: RT-qPCR of BGLT3 in HUDEP-2 cells; format: cell-based, human; settings: Sup.Fig.11a; relative to DMSO = 1; replicate values
# Description: as §1
# [4] = system: rat myoblast cell line H9c2; assay: Cell viability assay (WST-8), H9c2; format: cell-based; settings: control (0 μM) = 100
# Description: (§2) A WST-8 (2-(2-methoxy-4-nitrophenyl)-3-(4-nitrophenyl)-5-(2,4-disulfophenyl)-2H-tetrazolium) assay using a Cell Counting Kit-8 (DOJINDO) was performed to measure cell viability using an EnSpire microplate reader (PerkinElmer).
# [5] = Cell viability assay (WST-8), HUDEP-2; format: cell-based, human; settings: human, HUDEP-2 cells, control (0 μM) = 100
# Description: as §2
# [6] = system: HUDEP-2 cells; assay: Cell viability assay (WST-8), HUDEP-2; format: cell-based, human; settings: control (0 μM) = 100
# Description: as §2
# [7] = system: mice; assay: Mouse acute toxicity assay, survival; format: in vivo; settings: intravenous, 2-week observation
# Description: All animal studies were approved by the Institutional Committee for Animal Experiments of the Institute of Microbial Chemistry, and were performed in accordance with relevant guidelines and regulations to minimize animal suffering. Four-week-old female ICR mice were purchased from Charles River Breeding Laboratories (Yokohama, Japan) and maintained in a specific pathogen-free barrier facility. […] Samples were dissolved in saline containing 10% DMSO and 1% Tween 80 and injected intravenously into mice.
compound,measurement,setting,value
O=C(CCCCCCC(=O)Nc1ccccc1)NO [SAHA],ChIP-qPCR using antibodies against H3K9ac in HUDEP-2 cells treated with SAHA,[1]; BGLT3 locus,4.594 and 4.901 and 3.587 and 4.136 and 7.628 and 5.8678
same,ChIP-qPCR using antibodies against H3K9ac in HUDEP-2 cells treated with SAHA,[1]; HS1,3.554 and 4.79 and 1.956 and 6.9673 and 5.354
same,ChIP-qPCR using antibodies against H3K9ac in HUDEP-2 cells treated with SAHA,[1]; HS2,3.581 and 3.815 and 1.139 and 1.6187 and 3.866 and 3.138
same,ChIP-qPCR using antibodies against H3K9ac in HUDEP-2 cells treated with SAHA,[1]; HS3,2.6549 and 2.681 and 1.467 and 2.973 and 2.979
same,ChIP-qPCR using antibodies against H3K9ac in HUDEP-2 cells treated with SAHA,[1]; HS4,3.747 and 4.945 and 3.035 and 2.8654 and 4.964 and 4.658
same,histone H3 acetylation at the β-globin gene locus,"[1]; HUDEP-2, 1 μM, 1 day",increased
same,ChIP-qPCR using antibodies against H3K9ac in HUDEP-2 cells treated with SAHA,[1]; β-globin promoter,1.524 and 1.253 and 1.188 and 2.806 and 2.767
same,ChIP-qPCR using antibodies against H3K9ac in HUDEP-2 cells treated with SAHA,[1]; γ-globin promoter,0.7378 and 1.324 and 1.03 and 1.066 and 1.991 and 1.048
same,ChIP-qPCR using antibodies against H3K9ac in HUDEP-2 cells treated with SAHA,[1]; δ-globin promoter,4.601 and 5.375 and 3.661 and 4.076 and 5.898 and 5.487
same,β-globin gene in BGLT3-knockdown HUDEP-2 cells,[2]; shBGLT3 #1,2.301 and 2.189 and 2.546
same,γ-globin gene in BGLT3-knockdown HUDEP-2 cells,[2]; shBGLT3 #1,4.852 and 4.747 and 4.193
same,β-globin gene in BGLT3-knockdown HUDEP-2 cells,[2]; shBGLT3 #2,1.2128 and 1.2413 and 1.0394
same,γ-globin gene in BGLT3-knockdown HUDEP-2 cells,[2]; shBGLT3 #2,3.094 and 3.659 and 2.955
same,β-globin gene in BGLT3-knockdown HUDEP-2 cells,[2]; shBGLT3 #3,2.448 and 2.303 and 2.192
same,γ-globin gene in BGLT3-knockdown HUDEP-2 cells,[2]; shBGLT3 #3,2.0995 and 2.031 and 1.807
same,β-globin gene in BGLT3-knockdown HUDEP-2 cells,[2]; shctrl,3.928 and 4.654 and 3.722
same,γ-globin gene in BGLT3-knockdown HUDEP-2 cells,[2]; shctrl,13.6262 and 15.6907 and 11.2259
same,BGLT3 expression in HUDEP-2 cells,[3],4.739 and 6.125 and 5.109
COc1cc2c(NC3CCN(C(C)C)CC3)nc(N3CCC(F)(F)CC3)nc2cc1OCCCN1CCCC1 [UNC0642],cell viability in H9c2 cells,[4]; 0.039 μM,113.444 and 97.977 and 82.062
same,cell viability in H9c2 cells,[4]; 0.156 μM,119.033 and 94.058 and 85.452
same,cell viability in H9c2 cells,[4]; 0.625 μM,120.242 and 96.207 and 89.831
same,cell viability in H9c2 cells,[4]; 2.5 μM,126.737 and 89.381 and 103.107
same,cell viability in H9c2 cells,[4]; 10.0 μM,69.940 and 117.826 and 118.079
same,viability at 0.00457247 μM,[5]; 0.00457247 μM,97.1%
same,viability at 0.0137174 μM,[5]; 0.0137174 μM,87.4%
same,viability at 0.0411523 μM,[5]; 0.0411523 μM,86.5%
same,viability at 0.123457 μM,[5]; 0.123457 μM,92.1%
same,viability at 0.37037 μM,[5]; 0.37037 μM,85.8%
same,viability at 1.11111 μM,[5]; 1.11111 μM,85.2%
same,viability at 3.33333 μM,[5]; 3.33333 μM,54.8%
same,viability at 10 μM,[5]; 10 μM,8.77%
same,cell viability in HUDEP-2 cells,[6]; 0.00457247 μM,98.5098 and 95.7411
same,cell viability in HUDEP-2 cells,[6]; 0.0137174 μM,90.6667 and 93.356
same,cell viability in HUDEP-2 cells,[6]; 0.0411523 μM,91.9216 and 91.6525
same,cell viability in HUDEP-2 cells,[6]; 0.123457 μM,105.098 and 92.3339
same,cell viability in HUDEP-2 cells,[6]; 0.37037 μM,89.4118 and 91.9932
same,cell viability in HUDEP-2 cells,[6]; 1.11111 μM,93.8039 and 89.2675
same,cell viability in HUDEP-2 cells,[6]; 3.33333 μM,61.4902 and 56.2181
same,cell viability in HUDEP-2 cells,[6]; 10 μM,12.549 and 12.2658
same,Number of alive mice,[7]; 1.5625 mg/kg,3/3
same,Number of alive mice,[7]; 3.125 mg/kg,3/3
same,Number of alive mice,[7]; 6.25 mg/kg,2/3
same,Number of alive mice,[7]; 12.5 mg/kg,1/3
same,Number of alive mice,[7]; 25 mg/kg,0/3
